# Data from patent publication US11771779B2, “Non-metallic magnetic resonance contrast agent” (HADASIT MEDICAL RESEARCH SERVICES & DEVELOPMENT LIMITED, priority 2018, dated 2023).
# Like-named read-outs stand apart in the source and are kept apart here.
# Experiments:
# [1] = Estimated ^15N T1 (FIG. 1); details: same order of magnitude as [^15N,D9]choline, called a speculation
# Text: FIG. 1 ^15N T1s of selected molecules in water (H2O) and D2O measured at 5.8 T; (a) denotes Na^15NO3; (b) denotes solid-state polarization in D2O and dissolution in D2O.; (c) denotes solid-state polarization in D2O and dissolution in H2O.; In this case, during the decay in solution the nitrogen positions are fully protonated as confirmed by the respective split pattern of the signal (not shown); a, b, and c—determined experimentally; (d) denotes estimation.
# [2] = for T1 in the 1st min of hyperpolarization decay: 0-60 s; for T1 in the 2nd min of hyperpolarization decay: 65-120 s
# Text: The dissolution process is detailed in the results section. […] Unless otherwise stated, the dissolved hyperpolarized solution was directly injected to a screw cup 10 mm NMR tube in a 5.8T NMR spectrometer via a PTFE line of about 2.4 m length with 3 s of He(g) chase. This line was wrapped with a heating tape (MRC, Holon, Israel) that enabled control over the temperature of the dissolution medium arriving to the NMR tube directly or to a collection tube in the fringe field of the spectrometer. ^15N-Nuclear Magnetic Resonance (NMR) spectra were continuously recorded immediately at the start of the dissolution process. […] In the experiments in body fluids and in experiments in which the hyperpolarized solution was first cooled to temperatures below room temperature, the dissolution media was first collected in a conical tube placed in the spectrometer's fringe field, and then was injected by syringe via a PEEK line to the NMR tube that was placed in the magnet.
# For heating this hyperpolarized solution prior to arrival to the NMR tube, the PTFE line leading the hyperpolarized solution out of the spin polarization device was wrapped with a heating tape connected to a temperature controller (MRC, Holon, Israel). In this way, hyperpolarized solutions at temperatures higher than 26° C. could be obtained. For cooling the hyperpolarized solution, the heating tape was not turned on and the dissolution medium was mixed with 0 to 4 mL of D2O at 2° C. in a collection tube placed in ice-water bath in the fringe field of the magnet, prior to injection.
# (§1) ^15N-NMR spectroscopy was performed in a 5.8T NMR spectrometer (RS2D, Mundolsheim, France), using a 10 mm broad-band NMR probe. The chemical shift scale of the spectra presented herein was calibrated based on a separate measurement of a [^15N2]urea standard sample (4M in H2O:D2O 80:20), carried out prior to hyperpolarized ^15N acquisitions, calibrating the [^15N2]urea signal to −306 ppm (relative to nitromethane). For enhancement factor calculation, the spectra were collected with a high flip angle of […] and a repetition time of 2 s. For T1 calculation, the spectra were acquired with a low flip angle of […] and a longer repetition time of 5-10 s.
# The temperature in the NMR tube was continuously monitored using an NMR compatible temperature probe (Osensa, Burnaby, BC, Canada).
# Determination of the T1 of the hyperpolarized sites was performed by curve fitting of the signal decay to the following equation: S(t)=S0·e^−t/T^1·(cos θ)^t/TR, in which TR, the time between excitations, and θ, the nutation angle of excitation, are known. Curve fitting was performed using Matlab (Mathworks, Natick, Mass., USA).
# [3] = Experimental: The small amounts of hyperpolarized solution were added to the blood sample at 0, 3, 6, 7.25, and 9.17 min from arrival of the solution to the collection tube.
# [4] = remark: listed apart in the source
# Experimental: as §1
# The absolute enhancement factor was determined by comparing the maximal SNR of the magnitude signal multiplied by the linewidth at half-height obtained under hyperpolarized conditions to the intensity of the thermal equilibrium signal of the same sample (analyzed in the same way). The spectrum at thermal equilibrium was acquired with the same nutation angle under fully relaxed conditions. The same spectral acquisition parameters (spectral width, number of points, receiver gain) and processing parameters (apodization, zero-filling) were used in the analysis of both spectra and the thermal equilibrium signal was corrected for the number of scans.
# in the same spectrometer used to record the hyperpolarized signal (5.8T), as described in the Methods section, and then projected to the expected enhancement factors at a common clinical scanner at 1.5T. Enhancement factors were calculated with reference to a spectrum of the same sample.
# [5] = remark: listed apart in the source
# Experimental: For this reason it was important to determine also the potential conversion to hyperpolarized [^15N]nitrite in human saliva.
# To test for the presence of [^15N]nitrite in this saline-saliva sample after the hyperpolarized state had decayed, the same sample was scanned at thermal equilibrium as well. The sample was scanned for 20 h, at room temperature.
# (§2) In the next step, this solution was divided into 2 samples, in the following manner: 3 mL of this solution were combined with 0.75 mL of human saliva and the combined solution was scanned for 5 days. The rest of the solution (without human saliva) was kept outside the magnet at room temperature.
# [6] = remark: listed apart in the source
# Experimental: Then, 4.59 mL saline and 0.66 mL of D2O were added to this mixture. This solution was transferred to an NMR tube and scanned for 5 days. ^15N fully-relaxed spectra were recorded in blocks of about 4 h, whereas each block consisted of 720 averages with a 30 flip angle and a repetition time of 20 s.
# as §2
# [7] = test system: breast tumor bearing mouse; details: 50 mM solution injected
# [8] = previous results; cited from earlier work
# [9] = dogs; up to 120 mg/kg daily i.v. for 28 days; cited from earlier work
# [10] = rats; cited from earlier work
# [11] = mice; cited from earlier work
structure (smiles),measurement,setting,value
"[2H]C([2H])([2H])[15N+](CCOP(=O)([O-])OCC(O)CO)(C([2H])([2H])[2H])C([2H])([2H])[2H] (stereo not drawn) [[^15N,D9]GPC, [^15N,D9]glycerophosphocholine]",^15N T1 (estimated),[1],about 6 min
"O=[15N+]([O-])[O-].[Na+] [[^15N]nitrate, sodium [^15N]nitrate]",dependence of T1 on temperature,[2]; 34-50° C.,does not change
same,increase of T1 in 2nd min versus 1st min,[2]; D2O,43%
same,T1 in the 1st min of hyperpolarization decay,[2]; D2O (n = 4),81 ± 20
same,T1 in the 2nd min of hyperpolarization decay,[2]; D2O (n = 4),116 ± 7
same,T1 in the 1st min of hyperpolarization decay,[2]; H2O (n = 2),99 ± 3
same,T1 in the 2nd min of hyperpolarization decay,[2]; H2O (n = 2),99 ± 5
same,T1 in the 1st min of hyperpolarization decay,"[3]; Blood (n = 3), 0-60 s",27 ± 0.4
same,T1 in the 2nd min of hyperpolarization decay,"[3]; Blood (n = 3), 65-120 s",48 ± 1
same,increase of T1 in 2nd min versus 1st min,[3]; blood,78%
same,T1 in blood,"[3]; decay 1 of consecutive injections, error = 95% CI of fit",29 ± 2 s
same,T1 in blood,"[3]; decay 2 of consecutive injections, error = 95% CI of fit",30 ± 3 s
same,T1,"[3]; saline/whole human blood mixture (4 mL + 10 mL), 25 mM, 32-36° C., error = 95% CI of fit",29 ± 1 s
same,T1 upon mixing with whole blood,[3]; three measurements in two different blood samples,29 ± 1 s
same,^15N polarization,"[4]; corresponds to enhancement factor 5,298",1%
same,enhancement factor extrapolated to clinical MRI field of 1.5T,"[4]; extrapolated from 5,298 at 5.8 T","about 20,500"
same,maximal enhancement factor,"[4]; first signal in solution, 5.8 T, 2.5 h polarization at 1.5-1.6 K","5,298"
same,percent polarization of the ^15N,"[4]; physiological saline, HP vs TE spectra FIG. 3C/3D, 30° nutation angle",0.6%
same,conversion rate of nitrate to nitrite,[5],about 3.8 mole per day per 0.75 mL of saliva
same,signals in saline-saliva sample,[5],about equal signals of [^15N]nitrate and [^15N]nitrite
same,T1 in the 1st min of hyperpolarization decay,"[5]; Saline + saliva (n = 1), 0-60 s",116
same,signals in saline solution,"[6]; 22 mM with glucose 2.7 mM in saline, scanned 5 days, room temperature, FIG. 5A",Only the [^15N]nitrate signal appears in the spectrum
same,conversion to [^15N]nitrite in saline without saliva,"[6]; additional 5 days scan started after 14 days at room temperature, FIG. 5C",no conversion to [^15N]nitrite was observed
same,stable in saline solution,[6]; room temperature,at least 19 days
same,mouse vascular system in ^15N MR image,[7],enhanced in the MR image
same,tumor tissue in ^15N MR image,[7],enhanced in the MR image
"[2H]C([2H])([2H])[15N+](CCO)(C([2H])([2H])[2H])C([2H])([2H])[2H] [[^15N,D9]choline]",^15N T1,[8],about 6 min
"C[N+](C)(C)CCOP(=O)([O-])OC[C@H](O)CO [GPC, glycerophosphocholine]",effects of daily intravenous injection,[9],only mild and reversible mood changes and no mortality
same,safe dose for an intravenous injection,[10],781 mg/kg
same,safe dose for an intravenous injection,[11],521 mg/kg
